tested on: MCH receptors; assay: MCH receptor activity class (method not given); conditions: class by percent of control at 10^-7 M or IC50

Structure (SMILES) | class
CN(C)c1nc(N[C@H]2CC[C@@H](CNC(=O)c3cccc([N+](=O)[O-])c3)CC2)nc2c1CCCC2 [compound 606] | 3 (Class 3 The value of percent of control at 10^−7 M was more than 60% or the value of IC50 was more than 200 nM.)
CN(C)c1nc(N[C@H]2CC[C@@H](CNC(=O)Cc3ccccc3)CC2)nc2c1CCCC2 [compound 607] | 3 (Class 3 The value of percent of control at 10^−7 M was more than 60% or the value of IC50 was more than 200 nM.)
CN(C)c1nc(N[C@H]2CC[C@@H](CNC(=O)C3C[C@H]3c3ccccc3)CC2)nc2c1CCCC2 (stereo partly shown) [compound 608] | 3 (Class 3 The value of percent of control at 10^−7 M was more than 60% or the value of IC50 was more than 200 nM.)
CN(C)c1nc(N[C@H]2CC[C@@H](CNC(=O)c3ccc4c(c3)OCO4)CC2)nc2c1CCCC2 [compound 609] | 3 (Class 3 The value of percent of control at 10^−7 M was more than 60% or the value of IC50 was more than 200 nM.)
Cc1cccc(C(=O)NC[C@H]2CC[C@@H](Nc3nc4c(c(N(C)C)n3)CCCC4)CC2)c1 [compound 612] | 3 (Class 3 The value of percent of control at 10^−7 M was more than 60% or the value of IC50 was more than 200 nM.)
Cc1ccc(C(=O)NC[C@H]2CC[C@@H](Nc3nc4c(c(N(C)C)n3)CCCC4)CC2)cc1 [compound 613] | 3 (Class 3 The value of percent of control at 10^−7 M was more than 60% or the value of IC50 was more than 200 nM.)
CN(C)c1nc(N[C@H]2CC[C@@H](CNC(=O)c3cccs3)CC2)nc2c1CCCC2 [compound 614] | 3 (Class 3 The value of percent of control at 10^−7 M was more than 60% or the value of IC50 was more than 200 nM.)
CN(C)c1nc(N[C@H]2CC[C@@H](CNC(=O)Cc3cccs3)CC2)nc2c1CCCC2 [compound 615] | 3 (Class 3 The value of percent of control at 10^−7 M was more than 60% or the value of IC50 was more than 200 nM.)
CN(C)c1nc(N[C@H]2CC[C@@H](CNC(=O)c3cccc(OC(F)(F)F)c3)CC2)nc2c1CCCC2 [compound 616] | 3 (Class 3 The value of percent of control at 10^−7 M was more than 60% or the value of IC50 was more than 200 nM.)
CN(C)c1nc(N[C@H]2CC[C@@H](CNC(=O)OCc3ccccc3)CC2)nc2c1CCCC2 [compound 617] | 3 (Class 3 The value of percent of control at 10^−7 M was more than 60% or the value of IC50 was more than 200 nM.)
CN(C)c1nc(N[C@H]2CC[C@@H](CNC(=O)OCc3ccc([N+](=O)[O-])cc3)CC2)nc2c1CCCC2 [compound 618] | 3 (Class 3 The value of percent of control at 10^−7 M was more than 60% or the value of IC50 was more than 200 nM.)
Cc1cc(C(=O)NC[C@H]2CC[C@@H](Nc3nc4c(c(N(C)C)n3)CCCC4)CC2)ccc1Br [compound 619] | 3 (Class 3 The value of percent of control at 10^−7 M was more than 60% or the value of IC50 was more than 200 nM.)
CN(C)c1nc(N[C@H]2CC[C@@H](CNC(=O)c3cccc(I)c3)CC2)nc2c1CCCC2 [compound 620] | 3 (Class 3 The value of percent of control at 10^−7 M was more than 60% or the value of IC50 was more than 200 nM.)
CN(C)c1nc(N[C@H]2CC[C@@H](CNC(=O)c3cccc(Cl)c3F)CC2)nc2c1CCCC2 [compound 621] | 3 (Class 3 The value of percent of control at 10^−7 M was more than 60% or the value of IC50 was more than 200 nM.)
Cc1ccc(C(=O)NC[C@H]2CC[C@@H](Nc3nc4c(c(N(C)C)n3)CCCC4)CC2)c(F)c1F [compound 622] | 3 (Class 3 The value of percent of control at 10^−7 M was more than 60% or the value of IC50 was more than 200 nM.)
CN(C)c1nc(N[C@H]2CC[C@@H](CNC(=O)c3ccc(F)cc3Cl)CC2)nc2c1CCCC2 [compound 623] | 3 (Class 3 The value of percent of control at 10^−7 M was more than 60% or the value of IC50 was more than 200 nM.)

Structure (SMILES) | class
CN(C)c1nc(N[C@H]2CC[C@@H](CNC(=O)c3ccc(F)c(Cl)c3F)CC2)nc2c1CCCC2 [compound 624] | 3 (Class 3 The value of percent of control at 10^−7 M was more than 60% or the value of IC50 was more than 200 nM.)
CN(C)c1nc(N[C@H]2CC[C@@H](CNC(=O)CSc3ccccc3)CC2)nc2c1CCCC2 [compound 625] | 3 (Class 3 The value of percent of control at 10^−7 M was more than 60% or the value of IC50 was more than 200 nM.)
CN(C)c1nc(N[C@H]2CC[C@@H](CNC(=O)c3cccc(C(F)(F)F)c3F)CC2)nc2c1CCCC2 [compound 626] | 3 (Class 3 The value of percent of control at 10^−7 M was more than 60% or the value of IC50 was more than 200 nM.)
CN(C)c1nc(N[C@H]2CC[C@@H](CNC(=O)c3cc(C(F)(F)F)ccc3F)CC2)nc2c1CCCC2 [compound 627] | 3 (Class 3 The value of percent of control at 10^−7 M was more than 60% or the value of IC50 was more than 200 nM.)
COc1cccc(CC(=O)NC[C@H]2CC[C@@H](Nc3nc4c(c(N(C)C)n3)CCCC4)CC2)c1 [compound 629] | 3 (Class 3 The value of percent of control at 10^−7 M was more than 60% or the value of IC50 was more than 200 nM.)
CN(C)c1nc(N[C@H]2CC[C@@H](CNC(=O)Cc3ccc(F)cc3)CC2)nc2c1CCCC2 [compound 630] | 3 (Class 3 The value of percent of control at 10^−7 M was more than 60% or the value of IC50 was more than 200 nM.)
COc1ccc(CC(=O)NC[C@H]2CC[C@@H](Nc3nc4c(c(N(C)C)n3)CCCC4)CC2)cc1 [compound 631] | 1 (Class 1: The value of percent of control at 10^−7 M was less than 40% or the value of IC50 was less than 50 nM.)
Cc1cc(C(=O)NC[C@H]2CC[C@@H](Nc3nc4c(c(N(C)C)n3)CCCC4)CC2)c(C(F)(F)F)o1 [compound 632] | 1 (Class 1: The value of percent of control at 10^−7 M was less than 40% or the value of IC50 was less than 50 nM.)
Cc1cc(C(=O)NC[C@H]2CC[C@@H](Nc3nc4c(c(N(C)C)n3)CCCC4)CC2)c(C)o1 [compound 633] | 3 (Class 3 The value of percent of control at 10^−7 M was more than 60% or the value of IC50 was more than 200 nM.)
CCOc1ccccc1C(=O)NC[C@H]1CC[C@@H](Nc2nc3c(c(N(C)C)n2)CCCC3)CC1 [compound 634] | 3 (Class 3 The value of percent of control at 10^−7 M was more than 60% or the value of IC50 was more than 200 nM.)
CN(C)c1nc(N[C@H]2CC[C@@H](CNC(=O)c3ccc(F)c(Cl)c3)CC2)nc2c1CCCC2 [compound 635] | 3 (Class 3 The value of percent of control at 10^−7 M was more than 60% or the value of IC50 was more than 200 nM.)
Cc1ccc(C(=O)NC[C@H]2CC[C@@H](Nc3nc4c(c(N(C)C)n3)CCCC4)CC2)cc1F [compound 636] | 3 (Class 3 The value of percent of control at 10^−7 M was more than 60% or the value of IC50 was more than 200 nM.)
CN(C)c1nc(N[C@H]2CC[C@@H](CNC(=O)CC3CCCC3)CC2)nc2c1CCCC2 [compound 637] | 3 (Class 3 The value of percent of control at 10^−7 M was more than 60% or the value of IC50 was more than 200 nM.)
COc1cc(OC)cc(C(=O)NC[C@H]2CC[C@@H](Nc3nc4c(c(N(C)C)n3)CCCC4)CC2)c1 [compound 638] | 3 (Class 3 The value of percent of control at 10^−7 M was more than 60% or the value of IC50 was more than 200 nM.)
CN(C)c1nc(N[C@H]2CC[C@@H](CNC(=O)c3ccc(C#N)cc3)CC2)nc2c1CCCC2 [compound 639] | 3 (Class 3 The value of percent of control at 10^−7 M was more than 60% or the value of IC50 was more than 200 nM.)

From patent US20050197350A1, “Novel quinoline, tetrahydroquinazoline, and pyrimidine derivatives and methods of treatment related to the use thereof” (TAISHO PHARMACEUTICAL CO., LTD., priority 2003, published 2005)
